Test results: the supplement of paper PMC10307832

Tests used:
Assay in all cases: relative viability (nuclei count vs DMSO), 5 days (fraction); higher = more cells survive
RU-SKI 43 + Bortezomib = compound: CC[C@@H](C)CNCC(=O)N1CCC2=C([C@@H]1COC3=CC=CC(=C3)C)C=CS2 [RU-SKI 43] + CC(C)C[C@H](NC(=O)[C@H](Cc1ccccc1)NC(=O)c1cnccn1)B(O)O [Bortezomib] (partner 0.002 µM)
In short: (§1)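 Medians of duplicate plates are given as relative viability. That measure is the nuclei count in treated wells divided by the count in vehicle wells. Counts were taken on 4× images of lung cancer cell lines in 1536-well plates, 5 days after pin-tool dosing the day after seeding with one drug alone or a fixed anchor-drug dose plus five library-drug doses (not always all listed) in √10 steps.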

RU-SKI 43 + Pictilisib = compound: CC[C@@H](C)CNCC(=O)N1CCC2=C([C@@H]1COC3=CC=CC(=C3)C)C=CS2 [RU-SKI 43] + CS(=O)(=O)N1CCN(Cc2cc3nc(-c4cccc5[nH]ncc45)nc(N4CCOCC4)c3s2)CC1 [Pictilisib] (partner 1 µM)
In short: as §1

RU-SKI 43 + Luminespib = compound: CC[C@@H](C)CNCC(=O)N1CCC2=C([C@@H]1COC3=CC=CC(=C3)C)C=CS2 [RU-SKI 43] + CCNC(=O)c1noc(-c2cc(C(C)C)c(O)cc2O)c1-c1ccc(CN2CCOCC2)cc1 [Luminespib] (partner 0.01 µM)
In short: as §1

MK-8033 + Trametinib = compound: Cn1cc(-c2cnc3ccc4ccc(CS(=O)(=O)NCc5ccccn5)cc4c(=O)c3c2)cn1 [MK-8033] + CC(=O)Nc1cccc(-n2c(=O)n(C3CC3)c(=O)c3c(Nc4ccc(I)cc4F)n(C)c(=O)c(C)c32)c1 [Trametinib] (partner 0.02 µM)
In short: as §1

## LOU-NH91
RU-SKI 43 + Bortezomib; first compound 0.1 µM
  relative viability: 0.53
RU-SKI 43 + Bortezomib; first compound 0.3162 µM
  relative viability: 0.485
RU-SKI 43 + Bortezomib; first compound 1 µM
  relative viability: 0.519
RU-SKI 43 + Bortezomib; first compound 3.162 µM
  relative viability: 0.502
RU-SKI 43 + Bortezomib; first compound 10 µM
  relative viability: 0.497
RU-SKI 43 + Pictilisib; first compound 0.1 µM
  relative viability: 0.504
RU-SKI 43 + Pictilisib; first compound 0.3162 µM
  relative viability: 0.483
RU-SKI 43 + Pictilisib; first compound 1 µM
  relative viability: 0.547
RU-SKI 43 + Pictilisib; first compound 3.162 µM
  relative viability: 0.485
RU-SKI 43 + Pictilisib; first compound 10 µM
  relative viability: 0.543
RU-SKI 43 + Luminespib; first compound 0.1 µM
  relative viability: 0.307
RU-SKI 43 + Luminespib; first compound 0.3162 µM
  relative viability: 0.304
RU-SKI 43 + Luminespib; first compound 1 µM
  relative viability: 0.431
RU-SKI 43 + Luminespib; first compound 3.162 µM
  relative viability: 0.36
RU-SKI 43 + Luminespib; first compound 10 µM
  relative viability: 0.317
MK-8033 + Trametinib; first compound 0.02 µM
  relative viability: 0.761
MK-8033 + Trametinib; first compound 0.06325 µM
  relative viability: 0.73
MK-8033 + Trametinib; first compound 0.2 µM
  relative viability: 0.756
MK-8033 + Trametinib; first compound 0.6325 µM
  relative viability: 0.789
MK-8033 + Trametinib; first compound 2 µM
  relative viability: 0.792

## COR-L 105
RU-SKI 43 + Bortezomib; first compound 0.1 µM
  relative viability: 0.893
RU-SKI 43 + Bortezomib; first compound 0.3162 µM
  relative viability: 0.726
RU-SKI 43 + Bortezomib; first compound 1 µM
  relative viability: 0.83
RU-SKI 43 + Bortezomib; first compound 3.162 µM
  relative viability: 0.963
RU-SKI 43 + Bortezomib; first compound 10 µM
  relative viability: 0.616
RU-SKI 43 + Pictilisib; first compound 0.1 µM
  relative viability: 0.436
RU-SKI 43 + Pictilisib; first compound 0.3162 µM
  relative viability: 0.361
RU-SKI 43 + Pictilisib; first compound 1 µM
  relative viability: 0.377
RU-SKI 43 + Pictilisib; first compound 3.162 µM
  relative viability: 0.379
RU-SKI 43 + Pictilisib; first compound 10 µM
  relative viability: 0.364
RU-SKI 43 + Luminespib; first compound 0.1 µM
  relative viability: 0.871
RU-SKI 43 + Luminespib; first compound 0.3162 µM
  relative viability: 0.837
RU-SKI 43 + Luminespib; first compound 1 µM
  relative viability: 0.643
RU-SKI 43 + Luminespib; first compound 3.162 µM
  relative viability: 0.772
RU-SKI 43 + Luminespib; first compound 10 µM
  relative viability: 0.686
MK-8033 + Trametinib; first compound 0.02 µM
  relative viability: 0.514
MK-8033 + Trametinib; first compound 0.06325 µM
  relative viability: 0.392
MK-8033 + Trametinib; first compound 0.2 µM
  relative viability: 0.427
MK-8033 + Trametinib; first compound 0.6325 µM
  relative viability: 0.434
MK-8033 + Trametinib; first compound 2 µM
  relative viability: 0.356

## NCI-H838
RU-SKI 43 + Bortezomib; first compound 0.1 µM
  relative viability: 0.718
RU-SKI 43 + Bortezomib; first compound 0.3162 µM
  relative viability: 0.955
RU-SKI 43 + Bortezomib; first compound 1 µM
  relative viability: 0.912
RU-SKI 43 + Bortezomib; first compound 3.162 µM
  relative viability: 0.748
RU-SKI 43 + Bortezomib; first compound 10 µM
  relative viability: 0.992
RU-SKI 43 + Pictilisib; first compound 0.1 µM
  relative viability: 0.471
RU-SKI 43 + Pictilisib; first compound 0.3162 µM
  relative viability: 0.434
RU-SKI 43 + Pictilisib; first compound 1 µM
  relative viability: 0.544
RU-SKI 43 + Pictilisib; first compound 3.162 µM
  relative viability: 0.444
RU-SKI 43 + Pictilisib; first compound 10 µM
  relative viability: 0.445
RU-SKI 43 + Luminespib; first compound 0.1 µM
  relative viability: 0.237
RU-SKI 43 + Luminespib; first compound 0.3162 µM
  relative viability: 0.241
RU-SKI 43 + Luminespib; first compound 1 µM
  relative viability: 0.288
RU-SKI 43 + Luminespib; first compound 3.162 µM
  relative viability: 0.237
RU-SKI 43 + Luminespib; first compound 10 µM
  relative viability: 0.232
MK-8033 + Trametinib; first compound 0.02 µM
  relative viability: 0.488
MK-8033 + Trametinib; first compound 0.06325 µM
  relative viability: 0.506
MK-8033 + Trametinib; first compound 0.2 µM
  relative viability: 0.534
MK-8033 + Trametinib; first compound 0.6325 µM
  relative viability: 0.525
MK-8033 + Trametinib; first compound 2 µM
  relative viability: 0.51

## NCI-H1975
RU-SKI 43 + Bortezomib; first compound 0.1 µM
  relative viability: 0.441
RU-SKI 43 + Bortezomib; first compound 0.3162 µM
  relative viability: 0.421
RU-SKI 43 + Bortezomib; first compound 1 µM
  relative viability: 0.464
RU-SKI 43 + Bortezomib; first compound 3.162 µM
  relative viability: 0.4
RU-SKI 43 + Bortezomib; first compound 10 µM
  relative viability: 0.34
RU-SKI 43 + Pictilisib; first compound 0.1 µM
  relative viability: 0.293
RU-SKI 43 + Pictilisib; first compound 0.3162 µM
  relative viability: 0.289
RU-SKI 43 + Pictilisib; first compound 1 µM
  relative viability: 0.294
RU-SKI 43 + Pictilisib; first compound 3.162 µM
  relative viability: 0.273
RU-SKI 43 + Pictilisib; first compound 10 µM
  relative viability: 0.254
RU-SKI 43 + Luminespib; first compound 0.1 µM
  relative viability: 0.199
RU-SKI 43 + Luminespib; first compound 0.3162 µM
  relative viability: 0.172
RU-SKI 43 + Luminespib; first compound 1 µM
  relative viability: 0.229
RU-SKI 43 + Luminespib; first compound 3.162 µM
  relative viability: 0.157
RU-SKI 43 + Luminespib; first compound 10 µM
  relative viability: 0.25
MK-8033 + Trametinib; first compound 0.02 µM
  relative viability: 0.357
MK-8033 + Trametinib; first compound 0.06325 µM
  relative viability: 0.301
MK-8033 + Trametinib; first compound 0.2 µM
  relative viability: 0.279
MK-8033 + Trametinib; first compound 0.6325 µM
  relative viability: 0.239
MK-8033 + Trametinib; first compound 2 µM
  relative viability: 0.405

## NCI-H647
RU-SKI 43 + Bortezomib; first compound 0.1 µM
  relative viability: 0.956
RU-SKI 43 + Bortezomib; first compound 0.3162 µM
  relative viability: 0.841
RU-SKI 43 + Bortezomib; first compound 1 µM
  relative viability: 1.08
RU-SKI 43 + Bortezomib; first compound 3.162 µM
  relative viability: 1.25
RU-SKI 43 + Bortezomib; first compound 10 µM
  relative viability: 1.14
RU-SKI 43 + Pictilisib; first compound 0.1 µM
  relative viability: 0.392
RU-SKI 43 + Pictilisib; first compound 1 µM
  relative viability: 0.547
RU-SKI 43 + Pictilisib; first compound 3.162 µM
  relative viability: 0.428
RU-SKI 43 + Pictilisib; first compound 10 µM
  relative viability: 0.412
RU-SKI 43 + Luminespib; first compound 0.1 µM
  relative viability: 0.163
RU-SKI 43 + Luminespib; first compound 0.3162 µM
  relative viability: 0.325
RU-SKI 43 + Luminespib; first compound 1 µM
  relative viability: 0.236
RU-SKI 43 + Luminespib; first compound 3.162 µM
  relative viability: 0.123
RU-SKI 43 + Luminespib; first compound 10 µM
  relative viability: 0.221
MK-8033 + Trametinib; first compound 0.02 µM
  relative viability: 0.449
MK-8033 + Trametinib; first compound 0.06325 µM
  relative viability: 0.469
MK-8033 + Trametinib; first compound 0.2 µM
  relative viability: 0.412
MK-8033 + Trametinib; first compound 0.6325 µM
  relative viability: 0.456
MK-8033 + Trametinib; first compound 2 µM
  relative viability: 0.415

## A-427
RU-SKI 43 + Bortezomib; first compound 0.1 µM
  relative viability: 1.05
RU-SKI 43 + Bortezomib; first compound 0.3162 µM
  relative viability: 0.95
RU-SKI 43 + Bortezomib; first compound 1 µM
  relative viability: 1.05
RU-SKI 43 + Bortezomib; first compound 10 µM
  relative viability: 0.896
RU-SKI 43 + Pictilisib; first compound 0.1 µM
  relative viability: 0.83
RU-SKI 43 + Pictilisib; first compound 0.3162 µM
  relative viability: 0.66
RU-SKI 43 + Pictilisib; first compound 1 µM
  relative viability: 0.878
RU-SKI 43 + Pictilisib; first compound 10 µM
  relative viability: 0.675
RU-SKI 43 + Luminespib; first compound 0.1 µM
  relative viability: 0.851
RU-SKI 43 + Luminespib; first compound 0.3162 µM
  relative viability: 1.2
RU-SKI 43 + Luminespib; first compound 1 µM
  relative viability: 1
RU-SKI 43 + Luminespib; first compound 3.162 µM
  relative viability: 0.668
RU-SKI 43 + Luminespib; first compound 10 µM
  relative viability: 0.789
MK-8033 + Trametinib; first compound 0.02 µM
  relative viability: 0.775
MK-8033 + Trametinib; first compound 0.06325 µM
  relative viability: 0.719
MK-8033 + Trametinib; first compound 0.2 µM
  relative viability: 0.696
MK-8033 + Trametinib; first compound 0.6325 µM
  relative viability: 0.752
MK-8033 + Trametinib; first compound 2 µM
  relative viability: 0.781

## CAL-12T
RU-SKI 43 + Bortezomib; first compound 0.1 µM
  relative viability: 0.967
RU-SKI 43 + Bortezomib; first compound 0.3162 µM
  relative viability: 1
RU-SKI 43 + Bortezomib; first compound 1 µM
  relative viability: 1.3
RU-SKI 43 + Bortezomib; first compound 3.162 µM
  relative viability: 0.961
RU-SKI 43 + Bortezomib; first compound 10 µM
  relative viability: 0.964
RU-SKI 43 + Pictilisib; first compound 0.1 µM
  relative viability: 0.772
RU-SKI 43 + Pictilisib; first compound 0.3162 µM
  relative viability: 0.334
RU-SKI 43 + Pictilisib; first compound 1 µM
  relative viability: 0.624
RU-SKI 43 + Pictilisib; first compound 3.162 µM
  relative viability: 0.397
RU-SKI 43 + Pictilisib; first compound 10 µM
  relative viability: 0.461
RU-SKI 43 + Luminespib; first compound 0.1 µM
  relative viability: 0.207
RU-SKI 43 + Luminespib; first compound 0.3162 µM
  relative viability: 0.364
RU-SKI 43 + Luminespib; first compound 1 µM
  relative viability: 0.179
RU-SKI 43 + Luminespib; first compound 3.162 µM
  relative viability: 0.19
RU-SKI 43 + Luminespib; first compound 10 µM
  relative viability: 0.363
MK-8033 + Trametinib; first compound 0.02 µM
  relative viability: 0.347
MK-8033 + Trametinib; first compound 0.06325 µM
  relative viability: 0.297
MK-8033 + Trametinib; first compound 0.2 µM
  relative viability: 0.31
MK-8033 + Trametinib; first compound 0.6325 µM
  relative viability: 0.413
MK-8033 + Trametinib; first compound 2 µM
  relative viability: 0.329
